# Biological target: T1, sGC α1/β1 heterodimer stably expressed in CHO-K1 cell line (CHO-K1/sGC) (Homo sapiens, UniProt Q02108+Q02153)
# T1 construct: expressed in transfected cells
# T1 sequence (Q02108 1-690): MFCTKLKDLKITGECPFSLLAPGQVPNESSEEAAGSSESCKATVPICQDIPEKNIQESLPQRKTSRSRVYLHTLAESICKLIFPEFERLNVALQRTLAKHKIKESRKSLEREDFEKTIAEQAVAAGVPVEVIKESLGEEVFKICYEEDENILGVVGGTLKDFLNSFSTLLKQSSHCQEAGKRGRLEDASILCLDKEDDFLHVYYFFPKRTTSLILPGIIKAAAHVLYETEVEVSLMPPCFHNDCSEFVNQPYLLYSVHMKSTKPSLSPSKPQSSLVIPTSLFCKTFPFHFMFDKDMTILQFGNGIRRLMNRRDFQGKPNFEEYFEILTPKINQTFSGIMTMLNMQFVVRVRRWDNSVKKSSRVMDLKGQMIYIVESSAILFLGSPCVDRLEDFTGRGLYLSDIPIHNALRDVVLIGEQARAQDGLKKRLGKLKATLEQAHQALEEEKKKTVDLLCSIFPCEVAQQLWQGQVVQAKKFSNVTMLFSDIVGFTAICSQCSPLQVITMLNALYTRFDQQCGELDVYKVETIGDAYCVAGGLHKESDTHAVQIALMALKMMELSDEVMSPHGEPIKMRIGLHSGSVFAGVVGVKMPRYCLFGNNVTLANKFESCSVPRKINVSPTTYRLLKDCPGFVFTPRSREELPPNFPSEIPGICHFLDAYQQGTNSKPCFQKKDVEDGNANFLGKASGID
# T1 sequence (Q02153 1-619): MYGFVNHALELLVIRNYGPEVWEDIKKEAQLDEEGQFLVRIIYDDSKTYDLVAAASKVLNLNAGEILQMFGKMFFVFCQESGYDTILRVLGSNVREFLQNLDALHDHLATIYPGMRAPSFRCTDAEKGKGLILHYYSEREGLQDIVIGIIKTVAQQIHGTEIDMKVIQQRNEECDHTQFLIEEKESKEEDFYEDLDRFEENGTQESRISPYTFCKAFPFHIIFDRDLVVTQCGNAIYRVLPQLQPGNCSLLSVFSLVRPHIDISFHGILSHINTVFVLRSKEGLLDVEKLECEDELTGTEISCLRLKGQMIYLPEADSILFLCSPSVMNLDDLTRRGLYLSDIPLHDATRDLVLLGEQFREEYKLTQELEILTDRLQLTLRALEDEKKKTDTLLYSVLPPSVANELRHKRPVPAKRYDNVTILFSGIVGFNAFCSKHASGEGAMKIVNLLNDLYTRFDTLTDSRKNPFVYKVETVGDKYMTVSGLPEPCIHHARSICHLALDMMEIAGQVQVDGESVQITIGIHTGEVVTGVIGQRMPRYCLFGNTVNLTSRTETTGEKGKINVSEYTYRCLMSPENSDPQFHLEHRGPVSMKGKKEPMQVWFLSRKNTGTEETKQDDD
# Assay: Cell-based sGC Functional Assay (CASA Assay), cGMP generation
# Settings: CHO-K1/sGC cells, 1 hr at 37° C., cGMP by HTRF, 4P fit; presence or absence of 1 μM DETA-NO not given; read-out: IP (nM) (inflection point)
# Source text: sGC is a heme-containing enzyme that converts GTP to secondary messenger cGMP. Increases in cGMP levels affect several physiological processes including vasorelaxation through multiple downstream pathways. […] Heme-dependent activators (HDAs) preferentially activate sGC containing a ferrous heme group. To determine the effect of sGC activators on enzyme activity, the CASA assay was developed to monitor the generation of cGMP in a cell line that stably expresses the heterodimeric sGC protein.
# A CHO-K1 cell line stably expressing the sGC α1/β1 heterodimer was generated using a standard transfection protocol. CHO-K1 cells were transfected with plasmids pIREShyghsGCα1 and pIRESneo-hsGCβ1 simultaneously using FUGENE reagent. Clones that stably express both subunits were selected with hygromycin and neomycin for ˜2 weeks. Clone #7 was chosen for the assay and was designated CHO-K1/sGC. CHO-K1/sGC cells were maintained in F-K12 medium containing 10% heat-inactivated Fetal Bovine Serum (FBS), 100 μg/mL penicillin/streptomycin, 0.5 mg/mL hygromycin and 0.25 mg/mL G418. The cells were then cryopreserved in LN2. On the day of the assay, cells thawed and resuspended in EBSS Assay Buffer (Sigma, E3024) supplemented with 5 mM MgCl2, 10 mM HEPES (4-(2-hydroxyethyl)piperazine-1-ethanesulfonic acid) and 0.05% BSA (bovine serum albumin) (EAB) and cell density was then adjusted to 4×10^5/mL with EAB, IBMX (3-isobutyl-1-methylxanthin, 0.5 mM) was added to inhibit degradation of cGMP. Compounds were diluted from DMSO stock solutions and added to the assay at a final DMSO concentration of 2.5%. Cells were incubated with compounds in the presence and absence of 1 μM of Diethylenetriamine/nitric oxide adduct (DETA-NO; Sigma, 17018) for 1 hr at 37° C. At the end of the incubation period, the reaction was terminated and the cells were lysed with the detection reagents from Cisbio Kits. The level of intracellular cGMP was determined using an HTRF-based assay kit (CisBio, 62GM2PEC), which detects the displacement of a fluorescence labeled cGMP from its specific antibody. The cGMP produced by test compounds was directly compared to the maximum cGMP production (this value was set to equal 100% activation.) of the published sGC-HDA Compound A:
# [drawing 300] (Example 1 in WO 2010/065275, published Jun. 10, 2010). The test compounds' activities were then expressed as a percentage of Compound A, the standard in every experiment. This percent activation was calculated either in the presence or absence of DETA-NO which was then plotted. IP and maximum fold induction was derived using ADA analysis software for 4P fit.
# The compounds in the Examples of the instant invention had inflection points (IP) less than or equal to 10 μM and more particularly less than or equal to about 1 μM.
row,Compound,EC50 [nM]
1,"C[C@@]1(c2ccc(F)cc2)C(=O)Nc2nc(-c3cn4ncnc4c(Cc4ccc(F)cc4)n3)nc(N)c21 [Example 85B, (S)-4-amino-2-(8-(4-fluorobenzyl)-[1,2,4]triazolo[1,5-a]pyrazin-6-yl)-5-(4-fluorophenyl)-5-methyl-5H-pyrrolo[2,3-d]pyrimidin-6(7H)-one]",10.6
2,"Nc1nc(-c2cn3ncnc3c(CCCC(F)(F)F)n2)nc2c1C(c1ccc(Cl)c(F)c1)(C1CC1)C(=O)N2 (centres unmarked) [Example 33A, 4-amino-5-(4-chloro-3-fluorophenyl)-5-cyclopropyl-2-(8-(4,4,4-trifluorobutyl)-[1,2,4]triazolo[1,5-a]pyrazin-6-yl)-5H-pyrrolo[2,3-d]pyrimidin-6(7H)-one]",5.6
3,"Cc1nc2c(CCC(F)(F)C(F)(F)F)nc(-c3nc(N)c4c(n3)NC(=O)C4(C)c3nnc(C4CC4)o3)cn2n1 (centres unmarked) [Example 103A, 4-amino-5-(5-cyclopropyl-1,3,4-oxadiazol-2-yl)-5-methyl-2-(2-methyl-8-(3,3,4,4,4-pentafluorobutyl)-[1,2,4]triazolo[1,5-a]pyrazin-6-yl)-5H-pyrrolo[2,3-d]pyrimidin-6(7H)-one]",219
4,"Nc1nc(-c2cn3ncnc3c(CCC(F)(F)C(F)(F)F)n2)nc2c1C(c1cncc(F)c1)(C1CC1)C(=O)N2 (centres unmarked) [Example 8B, 4-amino-5-cyclopropyl-5-(5-fluoropyridin-3-yl)-2-(8-(3,3,4,4,4-pentafluorobutyl)-[1,2,4]triazolo[1,5-a]pyrazin-6-yl)-5H-pyrrolo[2,3-d]pyrimidin-6(7H)-one]",294
5,"C[C@@]1(c2ccc(F)cc2)C(=O)Nc2nc(-c3cn4ncnc4c(Cc4cccc(O)c4)n3)nc(N)c21 [Example 113B, (S)-4-amino-5-(4-fluorophenyl)-2-(8-(3-hydroxybenzyl)-[1,2,4]triazolo[1,5-a]pyrazin-6-yl)-5-methyl-5H-pyrrolo[2,3-d]pyrimidin-6(7H)-one]",763
6,"Cc1cnc(C2(C3CC3)C(=O)Nc3nc(-c4cn5ncnc5c(CCC(F)(F)C(F)(F)F)n4)nc(N)c32)cn1 (racemic) [Example 21B, 4-amino-5-cyclopropyl-5-(5-methylpyrazin-2-yl)-2-(8-(3,3,4,4,4-pentafluorobutyl)-[1,2,4]triazolo[1,5-a]pyrazin-6-yl)-5H-pyrrolo[2,3-d]pyrimidin-6(7H)-one]",43.1
7,"CC1(c2ccc(Cl)cn2)C(=O)Nc2nc(-c3cn4ncnc4c(CCC(F)(F)F)n3)nc(N)c21 (centres unmarked) [Example 79A, 4-amino-5-(5-chloropyridin-2-yl)-5-methyl-2-(8-(3,3,3-trifluoropropyl)-[1,2,4]triazolo[1,5-a]pyrazin-6-yl)-5H-pyrrolo[2,3-d]pyrimidin-6(7H)-one]",325
8,"O=C1Nc2nc(-c3cn4ncnc4c(CCCC(F)(F)F)n3)nc(O)c2C1(c1ccc(F)cn1)C1CC1 (centres unmarked) [Example 150A, 5-cyclopropyl-5-(5-fluoropyridin-2-yl)-4-hydroxy-2-(8-(4,4,4-trifluorobutyl)-[1,2,4]triazolo[1,5-a]pyrazin-6-yl)-5,7-dihydro-6H-pyrrolo[2,3-d]pyrimidin-6-one]",1220
9,"CC(C)Cc1nc(-c2ncc3c(n2)NC(=O)[C@@]3(C)c2ccc(F)cc2)cn2ncnc12 [Example 173A, (S)-5-(4-fluorophenyl)-2-(8-isobutyl-[1,2,4]triazolo[1,5-a]pyrazin-6-yl)-5-methyl-5,7-dihydro-6H-pyrrolo[2,3-d]pyrimidin-6-one]",574
10,"COc1ccc(C2(C)C(=O)Nc3nc(-c4cn5ncnc5c(CCCC(F)(F)F)n4)nc(O)c32)nc1 (centres unmarked) [Example 148A, 4-hydroxy-5-(5-methoxypyridin-2-yl)-5-methyl-2-(8-(4,4,4-trifluorobutyl)-[1,2,4]triazolo[1,5-a]pyrazin-6-yl)-5H-pyrrolo[2,3-d]pyrimidin-6(7H)-one]",1090
11,"Nc1nc(-c2cn3ncnc3c(CCC(F)(F)C(F)(F)F)n2)nc2c1C(c1ccc(C(F)(F)F)cn1)(C1CC1)C(=O)N2 (centres unmarked) [Example 15A, 4-amino-5-cyclopropyl-2-(8-(3,3,4,4,4-pentafluorobutyl)-[1,2,4]triazolo[1,5-a]pyrazin-6-yl)-5-(5-(trifluoromethyl)pyridin-2-yl)-5H-pyrrolo[2,3-d]pyrimidin-6(7H)-one]",316
12,"Nc1nc(-c2cn3ncnc3c(CCC(F)(F)C(F)(F)F)n2)nc2c1C(c1ccc(Cl)cn1)(C1CC1)C(=O)N2 (centres unmarked) [Example 7A, 4-amino-5-(5-chloropyridin-2-yl)-5-cyclopropyl-2-(8-(3,3,4,4,4-pentafluorobutyl)-[1,2,4]triazolo[1,5-a]pyrazin-6-yl)-5H-pyrrolo[2,3-d]pyrimidin-6(7H)-one]",41.4
13,"CCCCc1nc(-c2nc(N)c3c(n2)NC(=O)C3(C)c2ccc(C(F)(F)F)cn2)cn2ncnc12 (centres unmarked) [Example 67B, 4-amino-2-(8-butyl-[1,2,4]triazolo[1,5-a]pyrazin-6-yl)-5-methyl-5-(5-(trifluoromethyl)pyridin-2-yl)-5H-pyrrolo[2,3-d]pyrimidin-6(7H)-one]",25.5
14,"CCCc1nc(-c2nc(N)c3c(n2)NC(=O)C3(c2ccc(C(F)(F)F)cn2)C2CC2)cn2ncnc12 (centres unmarked) [Example 56A, 4-amino-5-cyclopropyl-2-(8-propyl-[1,2,4]triazolo[1,5-a]pyrazin-6-yl)-5-(5-(trifluoromethyl)pyridin-2-yl)-5H-pyrrolo[2,3-d]pyrimidin-6(7H)-one]",384
15,"CCCc1nc(-c2nc(O)c3c(n2)NC(=O)C3(C)c2ccc(Cl)c(F)c2)cn2ncnc12 (centres unmarked) [Example 166B, 5-(4-chloro-3-fluorophenyl)-4-hydroxy-5-methyl-2-(8-propyl-[1,2,4]triazolo[1,5-a]pyrazin-6-yl)-5H-pyrrolo[2,3-d]pyrimidin-6(7H)-one]",711
16,"CC1(c2ccccc2)C(=O)Nc2nc(-c3cn4ncnc4c(CCCC(F)(F)F)n3)nc(O)c21 (centres unmarked) [Example 143B, 4-hydroxy-5-methyl-5-phenyl-2-(8-(4,4,4-trifluorobutyl)-[1,2,4]triazolo[1,5-a]pyrazin-6-yl)-5H-pyrrolo[2,3-d]pyrimidin-6(7H)-one]",301
17,"CC1(c2ccc(F)c(F)c2)C(=O)Nc2nc(-c3cn4ncnc4c(CCCC(F)(F)F)n3)nc(O)c21 (centres unmarked) [Example 146B, 5-(3,4-difluorophenyl)-4-hydroxy-5-methyl-2-(8-(4,4,4-trifluorobutyl)-[1,2,4]triazolo[1,5-a]pyrazin-6-yl)-5H-pyrrolo[2,3-d]pyrimidin-6(7H)-one]",45.5

# Reference: US9822130B2, “Triazolo-pyrazinyl derivatives useful as soluble guanylate cyclase activators” (Merck Sharp & Dohme Corp., priority 2014, dated 2017)
